# ChEMBL document CHEMBL3600285, “Inhibitory Effects of Highly Oxygenated Lanostane Derivatives from the Fungus Ganoderma lucidum on P-Glycoprotein and α-Glucosidase” (J Nat Prod, 2015)
# How the values were obtained:
# [1] = target: ATP-dependent translocase ABCB1 (Homo sapiens, UniProt P08183); test: Inhibition of p-glycoprotein in human adriamycin-resistant MCF7 cells assessed as increase of adriamycin accumulation at 20 uM after 1 hr by LC-MS/MS analysis relative to control; type: cell-based; settings: mcf7, 1 h
# Chain of ATP-dependent translocase ABCB1 (P08183 whole entry): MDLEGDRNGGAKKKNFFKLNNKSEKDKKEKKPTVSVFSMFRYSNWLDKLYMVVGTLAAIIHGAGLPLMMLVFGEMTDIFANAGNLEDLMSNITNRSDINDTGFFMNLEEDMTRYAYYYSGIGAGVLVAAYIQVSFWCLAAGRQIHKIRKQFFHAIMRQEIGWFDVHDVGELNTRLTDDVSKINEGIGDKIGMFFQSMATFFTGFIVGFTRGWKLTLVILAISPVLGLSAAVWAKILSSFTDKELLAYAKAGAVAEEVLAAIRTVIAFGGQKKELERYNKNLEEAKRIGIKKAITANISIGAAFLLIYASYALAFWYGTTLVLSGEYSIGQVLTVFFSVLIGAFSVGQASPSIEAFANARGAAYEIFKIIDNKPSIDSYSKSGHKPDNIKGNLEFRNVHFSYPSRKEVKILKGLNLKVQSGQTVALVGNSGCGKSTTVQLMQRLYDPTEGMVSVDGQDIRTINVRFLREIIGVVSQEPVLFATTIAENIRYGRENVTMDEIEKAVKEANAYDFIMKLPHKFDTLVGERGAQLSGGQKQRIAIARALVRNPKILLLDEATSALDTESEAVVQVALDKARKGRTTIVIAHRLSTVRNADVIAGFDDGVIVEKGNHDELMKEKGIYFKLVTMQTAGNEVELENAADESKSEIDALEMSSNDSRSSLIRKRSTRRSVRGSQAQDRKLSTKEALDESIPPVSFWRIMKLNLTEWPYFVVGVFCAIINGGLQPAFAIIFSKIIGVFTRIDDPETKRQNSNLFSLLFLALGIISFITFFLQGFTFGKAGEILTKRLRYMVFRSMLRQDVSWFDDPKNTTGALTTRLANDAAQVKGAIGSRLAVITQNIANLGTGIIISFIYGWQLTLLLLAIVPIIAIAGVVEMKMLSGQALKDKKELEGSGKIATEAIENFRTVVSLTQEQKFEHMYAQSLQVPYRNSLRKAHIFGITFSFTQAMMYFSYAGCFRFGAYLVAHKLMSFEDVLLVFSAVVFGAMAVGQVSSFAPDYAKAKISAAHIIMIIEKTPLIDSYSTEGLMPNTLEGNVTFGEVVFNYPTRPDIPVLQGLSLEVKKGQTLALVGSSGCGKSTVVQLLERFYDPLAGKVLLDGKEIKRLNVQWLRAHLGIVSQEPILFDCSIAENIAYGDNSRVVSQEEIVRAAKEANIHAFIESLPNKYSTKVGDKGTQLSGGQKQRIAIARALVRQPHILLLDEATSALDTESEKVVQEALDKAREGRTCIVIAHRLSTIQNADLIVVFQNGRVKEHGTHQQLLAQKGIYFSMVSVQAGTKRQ
# [2] = target: Alpha-glucosidase MAL12 (Saccharomyces cerevisiae S288c, UniProt P53341); test: Inhibition of yeast alpha-glucosidase using p-NPG as substrate
# Chain of Alpha-glucosidase MAL12 (P53341 whole entry): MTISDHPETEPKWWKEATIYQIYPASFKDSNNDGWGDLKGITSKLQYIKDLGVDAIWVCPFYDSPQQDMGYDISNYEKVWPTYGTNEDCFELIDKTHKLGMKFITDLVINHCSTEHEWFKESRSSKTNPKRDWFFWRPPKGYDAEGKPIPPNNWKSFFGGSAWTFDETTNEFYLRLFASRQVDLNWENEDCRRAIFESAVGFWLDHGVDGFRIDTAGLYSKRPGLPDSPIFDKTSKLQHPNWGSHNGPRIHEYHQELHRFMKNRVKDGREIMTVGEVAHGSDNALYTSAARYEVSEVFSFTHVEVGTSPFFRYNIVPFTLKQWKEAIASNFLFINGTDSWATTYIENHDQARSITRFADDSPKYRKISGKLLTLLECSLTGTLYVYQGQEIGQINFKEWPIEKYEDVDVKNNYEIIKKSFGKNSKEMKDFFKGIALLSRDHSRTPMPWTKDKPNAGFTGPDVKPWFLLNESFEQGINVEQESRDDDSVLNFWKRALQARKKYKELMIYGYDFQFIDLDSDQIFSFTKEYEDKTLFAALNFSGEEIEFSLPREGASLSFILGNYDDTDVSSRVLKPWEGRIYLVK
Compound,Ratio [1],IC50 [2]
CC1(C)C(=O)CC[C@]2(C)C3=C([C@@H](O)C[C@@H]12)[C@]1(C)C(=O)C[C@H]([C@]2(C)CCC(=O)O2)[C@@]1(C)[C@@H](O)C3=O,3,–
CC1(C)[C@@H](O)CC[C@]2(C)C3=C([C@@H](O)C[C@@H]12)[C@]1(C)C(=O)C[C@H]([C@]2(C)CCC(=O)O2)[C@@]1(C)C(=O)C3=O,3,91.3 µM
C/C(=C\CC[C@@H](C)[C@H]1CC[C@@]2(C)C3=C([C@@H](O)C[C@]12C)[C@@]1(C)CCC(=O)C(C)(C)[C@@H]1CC3=O)C(=O)O,3,119 µM
COC(=O)CC[C@@H](C)[C@H]1CC(=O)[C@@]2(C)C3=C(C(=O)C[C@]12C)[C@@]1(C)CCC(=O)C(C)(C)[C@@H]1CC3=O [METHYL LUCIDENATE F],3,–
C[C@H](C(=O)O)[C@H]1CC(=O)[C@@]2(C)C3=C(C(=O)C[C@]12C)[C@@]1(C)CCC(=O)C(C)(C)[C@@H]1CC3=O,–,145 µM
COc1ccc(CCN(C)CCCC(C#N)(c2ccc(OC)c(OC)c2)C(C)C)cc1OC (stereo not given),3,–
CC1(C)[C@@H](O)CC[C@]2(C)C3=C([C@@H](O)C[C@@H]12)[C@]1(C)C(=O)C[C@H]([C@]2(C)CCC(=O)O2)[C@@]1(C)[C@H](O)C3=O,–,41.7 µM
CC1(C)C(=O)CC[C@]2(C)C3=C(C(=O)C[C@@H]12)[C@]1(C)C(=O)C[C@H]([C@]2(C)CCC(=O)O2)[C@@]1(C)CC3=O,–,81.8 µM
